Reference: patent US20260102377A1, “COMPOSITIONS AND METHODS FOR TREATING MYASTHENIA GRAVIS” (priority 2022, published 2026)
Entries after “also recorded” stand apart in the source; their conditions may differ.

What was measured:
[1] = tested on: patients with myasthenia gravis; experiment: Phase IIA clinical trial (Part C): hand grip strength (Jamar dynamometer); assay type: in vivo, human
Experimental: (§1) For each subject, the study consisted of three study periods during which subjects received either a single dose of NMD670 400 mg, NMD670 1200 mg, or placebo with a 7-day washout period between visits. On these study visits, subjects were asked to refrain from their regular dose of pyridostigmine (if applicable) from 14 h before dosing until after the last pharmacodynamic measurement on Day 1 (see Table 13: Visit and Assessment Schedule). The cross-over design allowed intra-individual comparison of drug effects versus placebo (see FIG. 16). A balanced design was applied to control for first-order carry-over effects.
(§2) Part C was a double-blinded, placebo-controlled, three-way cross-over comparison of two single oral doses of NMD670 in men and women with stable symptomatic myasthenia gravis. 12 patients were enrolled. For each subject, the study consisted of three study periods during which subjects received either a single dose of NMD670 or placebo. On these study visits, subjects were asked to refrain from their regular dose of pyridostigmine (if applicable) for 14 hours before dosing. Single doses were administered in randomized order (400 mg free acid, 1200 mg free acid, or placebo p.o.), with a 7-day washout period between visits (FIG. 16). NMD670/placebo was administered with 240 ml of still water.
Hand grip was evaluated with a Jamar hand grip dynamometer. An analysis of hand grip strength, an item of QMG score and therefore not an independent variable for the total score, was also performed (table 18).

[2] = tested on: EAMG rats; experiment: 14-day dosing in EAMG animals: grip strength; assay type: in vivo, rat
Experimental: (§3) To induce EAMG, 250 μL of emulsion of Complete Freund's Adjuvant, consisting of heat-inactivated Mycobacterium tuberculosis H37Ra in non-metabolizable oils, together with Phosphate-Buffered Saline (PBS) and 80 μg of the extracellular α-domain peptide fragment of the human nicotinic acetylcholine receptor (antigen) was injected subcutaneously in seven-week-old, anaesthetized Lewis rats. The disease-inducing antigen was supplied by the Hellenic Pasteur institute3. The emulsion was deposited at the tail base, left hindleg, and right foreleg. After injection, animals were allowed to recover and returned to their home cage maintained in ventilated racks under controlled temperature (20 to 22° C.) and humidity (˜55%) control, under a 12-h light/12-h dark cycle with food and water provided ad libitum. The animals had pathogen free status and the housing and changing system was designed to assure that the pathogen free status was preserved during the study. The EAMG rats were observed, weighed, and scored for MG symptoms weekly until symptoms of MG developed, whereafter animals were observed daily.
Sixteen (16) rats with an EAMG clinical score of 2 were allocated to the study and stratified to one of the two treatment groups (vehicle vs NMD670, 8 rats per group). Stratification was based on rotarod endurance and grip strength performance with the aim to obtain similar average starting points for the two groups. Grip strength and Rotarod performance were measured prior to treatment (day 0) and on days 1, 4, 7, 9, 11 and 14 during treatment. The treatment was administered by per oral gavage. Dosing was twice daily with 20 mg/kg NMD670 or vehicle (sterile water) for 14 days unless the rat was subjected to premature termination due to reaching humane endpoints. The dose solutions for the treatment groups were blinded. Thus, experimenters and subsequent analysis were blinded as to which group received CIC-1 inhibitor and which group received vehicle. Full analysis of data and statistics were concluded before unblinding the data. Plasma samples were obtained on days 0, 1 and 14, with muscle samples obtained on day 14 at termination.
Grip strength was measured on a BIOSEB BIO-GT3 Grip strength meter (force transducer, S/N 180271). The rat was handled to allow all four paws to grab the mesh on the grip meter and the rat was then pulled 5 times by the base of the tail in the opposite direction of its body orientation, i.e. towards the operator and away from the grip meter. Care was taken to ensure that the force recorded reflected the grip strength of the rat and not the force of the pulls conducted by the operator. There was minimal pause between the 5 repeated pulls with recordings being separated only by the time of handling the rat (few seconds). Measurements were considered invalid if the rat let go with one or more limbs before the pull was initiated. Average values of the 5 pulls per test occasion were used for further data processing.

[3] = tested on: EAMG rats; experiment: 14-day dosing in EAMG animals: bodyweight and study completion; assay type: in vivo, rat
Experimental: as §3
Sixteen (16) rats with an EAMG clinical score of 2 were allocated to the study and stratified to one of the two treatment groups (vehicle vs NMD670, 8 rats per group). […] Grip strength and Rotarod performance were measured prior to treatment (day 0) and on days 1, 4, 7, 9, 11 and 14 during treatment. […]

[4] = tested on: patients with myasthenia gravis; experiment: Phase IIA clinical trial (Part C): Quantitative Myasthenia Gravis test; assay type: in vivo, human
Experimental: as §1, §2
The Quantitative Myasthenia Gravis (QMG) total score (Barohn et al., Ann N YAcad Sci 1998, 841:769-72) is a validated clinical measure of sentinel muscle groups developed by the Myasthenia Gravis Foundation of America and the current clinical gold standard recommended for all prospective studies in MG. The QMG test is a physician-rated test using 13 assessments (see table 1), including facial strength, swallowing, respiratory, grip strength, and duration of time that limbs can be maintained in outstretched positions. Each of the 13 items is scored from 0 (none) to 3 (severe).
The total score can range from 0 to 39.

[5] = 400 mg group, 3-hour measurements
[6] = 1200 mg group, 3- and 5-hour measurements
[7] = single doses, 12 patients with MG

## C[C@H](Oc1ccc(Br)cc1-c1ccon1)C(=O)O [NMD670, (2S)-2-[4-bromo-2-(1,2-oxazol-3-yl)phenoxy]propanoic acid]
[1]; 400 mg versus placebo, 3-hour
  Right-hand grip strength, CFB over placebo, Arithmetic mean: 2.4 kg
[1]; 400 mg versus placebo, 3-hour, p = 0.05
  Right-hand grip strength, CFB over placebo, LSM: 2.4 kg
[1]; 400 mg versus placebo, 5-hour
  Right-hand grip strength, CFB over placebo, Arithmetic mean: 0.4 kg
[1]; 400 mg versus placebo, 5-hour, p = 0.76
  Right-hand grip strength, CFB over placebo, LSM: 0.4 kg
[1]; 400 mg versus placebo, Overall, p = 0.19
  Right-hand grip strength, CFB over placebo, LSM: 1.4 kg
[1]; 1200 mg versus placebo, 3-hour
  Right-hand grip strength, CFB over placebo, Arithmetic mean: 2.9 kg
[1]; 1200 mg versus placebo, 3-hour, p = 0.02
  Right-hand grip strength, CFB over placebo, LSM: 2.9 kg
[1]; 1200 mg versus placebo, 5-hour
  Right-hand grip strength, CFB over placebo, Arithmetic mean: 2.8 kg
[1]; 1200 mg versus placebo, 5-hour, p = 0.03
  Right-hand grip strength, CFB over placebo, LSM: 2.8 kg
[1]; 1200 mg versus placebo, Overall, p = 0.01
  Right-hand grip strength, CFB over placebo, LSM: 2.8 kg
[1]; both doses (400 mg, 1200 mg), statistically significant for the right hand
  Change from baseline over placebo in hand grip strength, left and right hand: improved; also recorded: numerically positive
[2]; 14-day chronic dosing, 20 mg/kg twice daily
  Grip strength over vehicle group throughout the period of treatment: increased grip strength
[2]; day 0 (prior to treatment), 20 mg/kg twice daily per oral, P > 0.9999 vs vehicle
  Grip strength relative to bodyweight: 4.8 ± 0.17
[2]; day 1, 20 mg/kg twice daily per oral, P = 0.1225 vs vehicle
  Grip strength relative to bodyweight: 5.5 ± 0.46
[2]; day 4, 20 mg/kg twice daily per oral, P = 0.0629 vs vehicle
  Grip strength relative to bodyweight: 5.4 ± .038
[2]; day 7, 20 mg/kg twice daily per oral, P = 0.7266 vs vehicle
  Grip strength relative to bodyweight: 4.9 ± 0.26
[2]; day 9, 20 mg/kg twice daily per oral, P = 0.2100 vs vehicle
  Grip strength relative to bodyweight: 5.0 ± 0.27
[2]; day 11, 20 mg/kg twice daily per oral, P = 0.0206 vs vehicle
  Grip strength relative to bodyweight: 5.4 ± 0.41
[2]; day 14, 20 mg/kg twice daily per oral, P = 0.1010 vs vehicle
  Grip strength relative to bodyweight: 5.1 ± 0.47
[3]; 14-day chronic dosing, EAMG animals, 20 mg/kg twice daily (b36 prints 40 mg/kg BID)
  Loss of body weight versus vehicle: attenuation in loss of body weight
[3]; 14-day study, early termination when body weight below 80% of maximum, vehicle 3 out of 8
  Treated rats that completed the study: 6 of the 8
[4]; [5]
  Patients achieving a 2-point or larger improvement in QMG total score: 6 of 12
  QMG responder rate (2-point or larger improvement from baseline compared to placebo): 50%
[4]; 400 mg group, 5-hour
  Patients achieving a 2-point or larger improvement in QMG total score: 5 of 12
  QMG responder rate (2-point or larger improvement from baseline compared to placebo): 42%
[4]; 400 mg treatment group, 3-hour timepoint, p=0.12
  QMG total score, LSM change over placebo (given as positive improvement): 1.3 points
[4]; 400 mg treatment group, 5-hour timepoint
  QMG total score, Arithmetic Mean change (given as positive improvement): 2.1 points
[4]; 400 mg treatment group, 5-hour timepoint, p=0.02
  QMG total score, LSM change over placebo (given as positive improvement): 1.7 points
[4]; 400 mg versus placebo, 3-hour
  QMG total score, CFB over placebo, Arithmetic mean: −1.6 points
[4]; 400 mg versus placebo, 3-hour, p = 0.12
  QMG total score, CFB over placebo, LSM: −1.2 points
[4]; 400 mg versus placebo, 5-hour
  QMG total score, CFB over placebo, Arithmetic mean: −2.1 points
[4]; 400 mg versus placebo, 5-hour, p = 0.02
  QMG total score, CFB over placebo, LSM: −1.7 points
[4]; 400 mg versus placebo, Overall, p = 0.03, single oral dose, 12 MG patients
  QMG total score, CFB over placebo, LSM: −1.5 points
[4]; [6]
  Patients achieving a 2-point or larger improvement in QMG total score: 5 of 12
  QMG responder rate (2-point or larger improvement from baseline compared to placebo): 42%
[4]; 1200 mg group, 3-hour timepoint
  QMG total score, Least Mean Square change improvement from baseline over placebo: 0.9 points
[4]; 1200 mg group, 5-hour timepoint
  QMG total score, Least Mean Square change improvement from baseline over placebo: 1.1 points
[4]; 1200 mg group, overall, non-statistically significant
  QMG total score, Least Mean Square change improvement from baseline over placebo: 1.0 points
[4]; 1200 mg versus placebo, 3-hour
  QMG total score, CFB over placebo, Arithmetic mean: −1.2 points
[4]; 1200 mg versus placebo, 3-hour, p = 0.25
  QMG total score, CFB over placebo, LSM: −0.9 points
[4]; 1200 mg versus placebo, 5-hour
  QMG total score, CFB over placebo, Arithmetic mean: −1.5 points
[4]; 1200 mg versus placebo, 5-hour, p = 0.14
  QMG total score, CFB over placebo, LSM: −1.1 points
[4]; 1200 mg versus placebo, Overall, p = 0.14
  QMG total score, CFB over placebo, LSM: −1 points
[4]; both 400 mg and 1200 mg doses, non-statistically significant
  QMG individual items: double vision, ptosis and dysarthria compared to placebo: improved
[4]; [7]
  Patients meeting responder criterion (QMG): up to 50%
  QMG total Score after single doses: clinically significant improvements
[4]; worded 'the NMD670 treatment arms', p=0.03 (Table 17: 400 mg overall)
  QMG total score, LSM change from baseline improvement over placebo (given as positive improvement): 1.5 points
